Assay results published in US8871767B2, “2-arylimidazo[1,2-B]pyridazine, 2-phenylimidazo[1,2-A]pyridine, and 2-phenylimidazo[1,2-A]pyrazine derivatives” (Hengrui (USA) Ltd., priority 2010, dated 2014).
Read-outs that look alike come from different tables or passages of the source.

Key:
[1] = tested on: Hedgehog pathway activation on 10T1/2/Smo#3 cells (C3H10T1/2 cells transfected with human Smoothened receptor); test: Hedgehog pathway activation on 10T1/2/Smo#3 cells measured by ALP activity; format: cell-based
Method: Hedgehog conditioned media was obtained by transfecting 293H cells with the full length gene encoding human Sonic Hedgehog (hShh) inserted into the pCMV6 expression vector, which contains a neomycin selectable marker and expresses the protein of interest with a C-terminal FLAG affinity tag. After selection in G418 containing media, conditioned media from Hedgehog expressing clones were tested for the ability to activate the hedgehog-responsive GLi-luciferase reporter in the Shh Light II cell line obtained by license from John Hopkins University (Taipale J, et al. Effects of oncogenic mutations in Smoothened and Patched can be reversed by cyclopamine. Nature 406: 1005-1009, 2000).
C3H10T1/2 cells were transfected with a pCMV expression vector containing the full length gene sequence encoding the human Smoothened receptor. Pooled cells, designated 10T1/2/Smo#3, growing in G418 selection media responded to activation by 10-20% conditioned hShh media with an approximate 5-10 fold increase in alkaline phosphaste (ALP) activity over untransfected parent C3H10T1/2 cells as measured by the conversion of the free acid of 4-methylumbelliferyl phosphate to a fluorescent product.
A test compound library was screened against hShh and 500 nM SAG (a direct agonist of the Smoothened receptor) activated 10T1/2/Smo#3 cells and Shh Light II reporter cells for the ability to block Hedgehog pathway activation. Concurrently, cell viability was measured by utilizing Celltiter-Blue® (Promega, Madison Wis.) viability assay. Active compounds were defined as those that inhibited Hedgehog signaling by greater than 50% with no concurrent loss in cell viability.
Their inhibitory activity against Hedgehog pathway activation on 10T1/2/Smo#3 cells as measured by ALP activity and Shh Light II reporter cells as measured by luciferase activity is shown in Table 1 below. In Table 1, +++ stands for an IC50 value that is less than 0.3 μM, ++ between 0.3 and 3 μM, + between 3 and 30 μM.
Additional data for compounds of the invention is shown below in Table 2. Their inhibitory activities against Hedgehog pathway activation are shown as IC50 values in μM on 10T1/2/Smo#3 cells as measured by ALP activity, or on Shh Light II reporter cells as measured by luciferase activity (hShh activation).

[2] = tested on: Hedgehog pathway activation (GLi-luciferase reporter) in Shh Light II reporter cells; test: Hedgehog pathway activation on Shh Light II reporter cells measured by luciferase activity; format: cell-based
How it was run: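 Shh Light II reporter cells carrying a hedgehog-responsive GLi-luciferase reporter were stimulated either with 500 nM SAG, a direct Smoothened agonist, or with conditioned media containing human Sonic Hedgehog (hShh). Test compounds were evaluated for blocking this pathway activation, quantified by luciferase activity. Cell viability was monitored in parallel with the Celltiter-Blue® assay.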

[3] = Mus musculus, C3H 10T1/2, 10T1/2/Smo#3 cells, measured by ALP activity, read-out: ALP (IC50, inhibition of Hedgehog pathway activation)
[4] = Mus musculus, Shh Light II, hShh activation, read-out: Shh (IC50, inhibition of Hedgehog pathway activation)

With `Cc1ccc(-c2cn3nc(-c4ccc(C(N)=O)cc4F)ccc3n2)cc1NC(=O)C(C)(C)C` [compound 541] the IC50 [1, 3] was 181 nM and the IC50 [2, 4] was 255 nM.

In the case of `Cc1ccncc1-c1ccc2nc(-c3ccc(C(F)(F)F)c(NC(=O)C(C)(C)C)c3)cn2n1` [Example 383, N-(5-(6-(4-methylpyridin-3-yl)imidazo[1,2-b]pyridazin-2-yl)-2-(trifluoromethyl)phenyl)pivalamide], the IC50 [1, 3] is reported as 141 nM and the IC50 [2, 4] is reported as 193 nM.

With `CCN1CCCC1C(=O)Nc1cc(-c2cn3nc(-c4cccnc4C(F)(F)F)ccc3n2)ccc1C` (stereo not drawn) [Example 648, 1-ethyl-N-(2-methyl-5-(6-(2-(trifluoromethyl)pyridin-3-yl)imidazo[1,2-b]pyridazin-2-yl)phenyl)pyrrolidine-2-carboxamide] the IC50 [1, 3] was 373 nM and the IC50 [2, 4] was 400 nM.

`CC(C)(C)C(=O)Nc1cc(-c2cn3nc(N4CC[C@H](O)C4)ccc3n2)ccc1C(F)(F)F` [Example 340, (S)-N-(5-(6-(3-hydroxypyrrolidin-1-yl)imidazo[1,2-b]pyridazin-2-yl)-2-(trifluoromethyl)phenyl)pivalamide] showed an IC50 [1, 3] of 114 nM and an IC50 [2, 4] of 115 nM.

For `CC(C)(C)C(=O)Nc1cc(-c2cn3nc(N4CCC(O)C4)ccc3n2)ccc1C(F)(F)F` (stereo not drawn) [Example 467, N-(5-(6-(3-hydroxypyrrolidin-1-yl)imidazo[1,2-b]pyridazin-2-yl)-2-(trifluoromethyl)phenyl)pivalamide], the IC50 ([1]; 10T1/2/Smo#3 cells, measured by ALP activity, read-out: ALP (IC50, inhibition of Hedgehog pathway activation)) was 114 nM and the IC50 ([2]; hShh activation, read-out: Shh (IC50, inhibition of Hedgehog pathway activation)) was 115 nM.

`CC(C)(C)C(=O)Nc1cc(-c2cn3nc(C(N)=O)ccc3n2)ccc1C(F)(F)F` [Example 180, 2-(3-pivalamido-4-(trifluoromethyl)phenyl)imidazo[1,2-b]pyridazine-6-carboxamide] showed an IC50 ([1]; Mus musculus, C3H 10T1/2, 10T1/2/Smo#3 cells, hShh activation, ALP activity, read-out: 10T1/2/Smo#3 ALP activity (hShh Activation)) of 3000 to 30000 nM, an IC50 [1, 3] of 5730 nM and an IC50 ([2]; Mus musculus, Shh Light II, SAG activation (500 nM SAG), read-out: Shh Light II luciferase activity (SAG activation)) of 3000 to 30000 nM. The IC50 [2, 4] was 3880 nM and the IC50 ([2]; Mus musculus, Shh Light II, hShh activation, read-out: Shh Light II luciferase activity (hShh activation)) was 3000 to 30000 nM.

`CCc1ccc(-c2cn3nc(-c4cccnc4C(F)(F)F)ccc3n2)cc1NC(=O)C1CCCCC1` [Example 687, N-(2-ethyl-5-(6-(2-(trifluoromethyl)pyridin-3-yl)imidazo[1,2-b]pyridazin-2-yl)phenyl)cyclohexanecarboxamide] gave an IC50 [1, 3] of 1590 nM and an IC50 [2, 4] of 463 nM.

`Cc1ccc(-c2cn3nc(-c4ccc(C(N)=NO)cc4F)ccc3n2)cc1NC(=O)C(C)(C)C` [compound 567] was tested, and the IC50 [1, 3] was 298 nM and the IC50 [2, 4] was 219 nM.

For `Cc1ccc(-c2cn3nc(-c4cccc(C=CC(=O)NO)c4)ccc3n2)cc1NC(=O)C(C)(C)C` [compound 559], the IC50 [1, 3] was 604 nM and the IC50 [2, 4] was 322 nM.

`Cc1ccc(-c2cn3nc(-c4ccc(NC(=O)CCCCC(=O)NO)cc4C(F)(F)F)ccc3n2)cc1NC(=O)C(C)(C)C` [compound 531] showed an IC50 [1, 3] of 1140 nM and an IC50 [2, 4] of 586 nM.

`CC(C)(C)C(=O)Nc1cc(-c2cn3nc(-c4cc(F)ccc4F)ccc3n2)ccc1C(F)(F)F` [Example 224, N-(5-(6-(2,5-difluorophenyl)imidazo[1,2-b]pyridazin-2-yl)-2-(trifluoromethyl)phenyl)pivalamide] showed an IC50 [1, 3] of 62 nM and an IC50 [2, 4] of 82 nM.

With `Cn1cccc1-c1ccc2nc(-c3ccc(C(F)(F)F)c(NC(=O)C(C)(C)C)c3)cn2n1` [Example 379, N-(5-(6-(1-methyl-1H-pyrrol-2-yl)imidazo[1,2-b]pyridazin-2-yl)-2-(trifluoromethyl)phenyl)pivalamide] the IC50 [1, 3] was 1860 nM and the IC50 [2, 4] was greater than 10000 nM.

In the case of `CCOc1ccc2nc(-c3ccc(OC(F)(F)F)c(NC(=O)C(C)(C)C)c3)cn2n1` [Example 246, N-(5-(6-ethoxyimidazo[1,2-b]pyridazin-2-yl)-2-(trifluoromethoxy)phenyl)pivalamide], the IC50 [1, 3] is reported as 1320 nM.

Compound `CC(C)(C)C(=O)Nc1cc(-c2cn3nc(Cl)ccc3n2)ccc1OC(F)(F)F` [Example 245, N-(5-(6-chloroimidazo[1,2-b]pyridazin-2-yl)-2-(trifluoromethoxy)phenyl)pivalamide] has an IC50 [1, 3] of 2970 nM.

Work on `CC(C)(C)C(=O)Nc1cc(-c2cn3nc(Cl)ccc3n2)ccc1C1CC1` [Example 270, N-(5-(6-chloroimidazo[1,2-b]pyridazin-2-yl)-2-cyclopropylphenyl)pivalamide] yielded an IC50 [1, 3] of 9430 nM.

With `CCOc1ccc2nc(-c3ccc(C4CC4)c(NC(=O)C(C)(C)C)c3)cn2n1` [Example 272, N-(2-cyclopropyl-5-(6-ethoxyimidazo[1,2-b]pyridazin-2-yl)phenyl)pivalamide] the IC50 [1, 3] was 1260 nM.

With `C[C@@H]1CN(c2ccc3nc(-c4ccc(C(F)(F)F)c(NC(=O)C(C)(C)C)c4)cn3n2)C[C@H](C)O1` [Example 250, N-(5-(6-(2,6-dimethylmorpholino)imidazo[1,2-b]pyridazin-2-yl)-2-(trifluoromethyl)phenyl)pivalamide] the IC50 [1, 3] was 259 nM.

With `CC(C)(C)C(=O)Nc1cc(-c2cn3nc(-c4ccccc4F)ccc3n2)ccc1C1CC1` [Example 271, N-(2-cyclopropyl-5-(6-(2-fluorophenyl)imidazo[1,2-b]pyridazin-2-yl)phenyl)pivalamide] the IC50 [1, 3] was 246 nM.

`CCOC(=O)c1ccccc1-c1ccc2nc(-c3ccc(C(F)(F)F)c(NC(=O)C(C)(C)C)c3)cn2n1` [Example 257, ethyl 2-(2-(3-pivalamido-4-(trifluoromethyl)phenyl)imidazo[1,2-b]pyridazin-6-yl)benzoate] was tested, and the IC50 [1, 3] was 497 nM.

`CC(C)(C)C(=O)Nc1cc(-c2cn3nc(N4CCOCC4)ccc3n2)ccc1OC(F)(F)F` [Example 267, N-(5-(6-morpholinoimidazo[1,2-b]pyridazin-2-yl)-2-(trifluoromethoxy)phenyl)pivalamide] was tested, and the IC50 [1, 3] was 2080 nM.

For `CC1CN(c2ccc3nc(-c4ccc(OC(F)(F)F)c(NC(=O)C(C)(C)C)c4)cn3n2)CC(C)O1` (stereo not drawn) [Example 266, N-(5-(6-(2,6-dimethylmorpholino)imidazo[1,2-b]pyridazin-2-yl)-2-(trifluoromethoxy)phenyl)pivalamide], the IC50 [1, 3] was 1530 nM.

For `CC(C)(C)C(=O)Nc1cc(-c2cn3nc(N4CCN(S(C)(=O)=O)CC4)ccc3n2)ccc1OC(F)(F)F` [Example 268, N-(5-(6-(4-(methylsulfonyl)piperazin-1-yl)imidazo[1,2-b]pyridazin-2-yl)-2-(trifluoromethoxy)phenyl)pivalamide], the IC50 [1, 3] was 1940 nM.

Compound `CC(C)(C)C(=O)Nc1cc(-c2cn3nc(N4CCC(O)CC4)ccc3n2)ccc1OC(F)(F)F` [Example 269, N-(5-(6-(4-hydroxypiperidin-1-yl)imidazo[1,2-b]pyridazin-2-yl)-2-(trifluoromethoxy)phenyl)pivalamide] has an IC50 [1, 3] of 1010 nM.

Work on `C[C@@H]1CN(c2ccc3nc(-c4ccc(OC(F)(F)F)c(NC(=O)C(C)(C)C)c4)cn3n2)C[C@H](C)O1` [Example 463, N-(5-(6-((2R,6S)-2,6-dimethylmorpholino)imidazo[1,2-b]pyridazin-2-yl)-2-(trifluoromethoxy)phenyl)pivalamide] yielded an IC50 [1, 3] of 1530 nM.

For `CCCCOc1ccc2nc(-c3ccc(OC(F)(F)F)c(NC(=O)C(C)(C)C)c3)cn2n1` [Example 249, N-(5-(6-butoxyimidazo[1,2-b]pyridazin-2-yl)-2-(trifluoromethoxy)phenyl)pivalamide], the IC50 [1, 3] was 889 nM.

With `CC(C)Oc1ccccc1-c1ccc2nc(-c3ccc(C(F)(F)F)c(NC(=O)C(C)(C)C)c3)cn2n1` [Example 251, N-(5-(6-(2-isopropoxyphenyl)imidazo[1,2-b]pyridazin-2-yl)-2-(trifluoromethyl)phenyl)pivalamide] the IC50 [1, 3] was 518 nM.

Compound `CC(=O)c1cccc(-c2ccc3nc(-c4ccc(C(F)(F)F)c(NC(=O)C(C)(C)C)c4)cn3n2)c1` [Example 254, N-(5-(6-(3-acetylphenyl)imidazo[1,2-b]pyridazin-2-yl)-2-(trifluoromethyl)phenyl)pivalamide] has an IC50 [1, 3] of 360 nM.
